Laboratory results from patent publication US20260176289A1, “SMALL MOLECULE INHIBITORS OF KRAS PROTEINS” (Merck Sharp & Dohme LLC, priority 2022, published 2026).
Where two headings read alike, the source gives them in different places.

Tests used:
KRAS-G12D = KRAS-G12D (Homo sapiens, UniProt P01116, G12D); assay: SOS-catalyzed nucleotide exchange assay (Procedure A, TR-FRET), KRAS-G12D; assay type: biochemical; details: nucleotide exchange, read-out: KRAS G12D GNE IC50
Method in brief: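 Signal ratio (520/495 nm, excitation 340 nm) reports Bodipy-GDP retention on biotinylated RAS after SOS-catalyzed exchange with 3 mM GTP. SOS was 40 nM, except 160 nM for G12V. Room-temperature exchange lasted 60 min (90 min for G12V), following a 60 min compound preincubation.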

KRAS-WT = KRAS-WT (Homo sapiens, UniProt P01116); assay: SOS-catalyzed nucleotide exchange assay (Procedure A, TR-FRET), KRAS-WT; assay type: biochemical; details: nucleotide exchange, read-out: KRAS WT GNE IC50
KRAS-WT, sequence (P01116 with tags, fused parts or gaps isoform P01116-2): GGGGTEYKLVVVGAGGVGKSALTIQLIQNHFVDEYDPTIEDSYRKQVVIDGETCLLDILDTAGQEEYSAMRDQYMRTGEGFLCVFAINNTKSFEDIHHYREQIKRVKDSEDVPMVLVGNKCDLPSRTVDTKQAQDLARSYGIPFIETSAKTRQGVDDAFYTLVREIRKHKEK
Method in brief: (§1)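 TR-FRET 520/495 nm ratio read after SOS-driven exchange of Bodipy-GDP for unlabeled GTP (3 mM) on biotinylated RAS bound to Tb-streptavidin. There was a 60 min compound preincubation, RT. Final RAS/SOS and reaction times: G12C 3 nM/40 nM; WT 1 nM/40 nM; NRAS 1.25 nM/40 nM, each 60 min. G12V was 1.25 nM/160 nM, 90 min.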

KRAS-G12V = KRAS-G12V (Homo sapiens, UniProt P01116, G12V); assay: SOS-catalyzed nucleotide exchange assay (Procedure A, TR-FRET), KRAS-G12V; assay type: biochemical; details: nucleotide exchange, read-out: KRAS G12V GNE IC50
KRAS-G12V, sequence (P01116 with tags, fused parts or gaps isoform P01116-2 G12V): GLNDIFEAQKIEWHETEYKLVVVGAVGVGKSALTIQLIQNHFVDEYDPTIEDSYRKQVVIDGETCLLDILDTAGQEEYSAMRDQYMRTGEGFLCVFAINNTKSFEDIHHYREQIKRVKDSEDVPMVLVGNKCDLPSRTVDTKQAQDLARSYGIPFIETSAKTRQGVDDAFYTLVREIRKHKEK
Method in brief: as §1

KRAS-G13D = KRAS-G13D (Homo sapiens, UniProt P01116, G13D); assay: SOS-catalyzed nucleotide exchange assay (Procedure A, TR-FRET), KRAS-G13D; assay type: biochemical; details: nucleotide exchange, Procedure A; read-out: KRAS G13D GNE IC50
KRAS-G13D, sequence (P01116 with tags, fused parts or gaps isoform P01116-2 G13D): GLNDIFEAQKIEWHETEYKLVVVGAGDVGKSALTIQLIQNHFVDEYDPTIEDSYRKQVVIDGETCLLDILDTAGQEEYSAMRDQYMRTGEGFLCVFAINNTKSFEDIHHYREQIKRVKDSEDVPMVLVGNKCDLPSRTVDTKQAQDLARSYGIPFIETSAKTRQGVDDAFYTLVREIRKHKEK
Excerpt: (§2) Procedure for SOS-Catalyzed Nucleotide Exchange Assay for KRAS-WT, G12C/D/V, G13D, HRAS, and NRAS (Procedure A)
(§3) Recombinant KRAS-G12C protein used in this assay has an additional triple mutation (C51S/C80L/C118S). Whereas KRAS-WT, G12D/V, G13D, HRAS and NRAS are in context of their WT protein sequence background. Specifically, the SOS-catalyzed nucleotide exchange assay utilizes a preformed TR-FRET complex containing a specific biotinylated RAS protein (KRAS-WT, G12C/V/D, G13D, HRAS, NRAS; described above) with Bodipy-GDP, and Terbium-streptavidin. Compounds are preincubated with this complex for 60 minutes. Subsequently, recombinant human SOS protein and unlabeled GTP are added to initiate the exchange reaction. Small molecule inhibitors stabilize the Bodipy-GDP complex whereas the untreated protein rapidly exchanges Bodipy-GDP for unlabeled GTP resulting in reduced TR-FRET signal.
(§4) To assemble the preformed TR-FRET complexes, each biotinylated RAS protein is diluted to 2 μM in an EDTA Buffer (20 mM HEPES pH 7.5, 50 mM sodium chloride, 10 mM EDTA, and 0.01% Tween) and incubated at room temperature for one hour. This mixture is then further diluted to 90 nM in an Assay Buffer (20 mM HEPES pH 7.5, 150 mM sodium chloride, 10 mM magnesium chloride, and 0.005% Tween) containing 15 nM of Terbium-Streptavidin (Invitrogen, catalog #PV3577) and 900 nM of Bodipy-GDP (Invitrogen, catalog #G22360) and incubated at room temperature for six hours. It should be noted that this preformed TR-FRET complex for each of the RAS protein were made ahead of time, aliquoted and stored at −80° C. until the day of the experiment.
(§5) Each test compound (10 mM stock in DMSO) is diluted in DMSO to make a final-10-point, 3-fold dilution and is acoustically dispensed into a 384-well assay plate (Corning, catalog #3820) using an Echo 550 (Labcyte). Each well of the assay plate receives 3 μL of a specific 3×RAS preformed TR-FRET complex and 3 μL of Assay Buffer and is incubated at room temperature for 60 minutes (preincubation time). Each well then receives 3 μL of 3×recombinant human SOS protein and GTP (Sigma, G8877) in Assay Buffer and is incubated at room temperature for 30 minutes (G13D), 60 minutes (KRAS WT/G12C/D, H/NRAS) or 90 minutes for G12V. The final reaction in each well of 9 μL consists of 3 mM GTP, specific Ras and SOS proteins in the following concentrations: KRAS-G12C/SOS=3 nM/40 nM, KRAS-WT and G12D/SOS=1 nM/40 nM, KRAS-G12V/SOS=1.25 nM/160 nM. KRAS-G13D/SOS=1.25 nM/0 nM, HRAS and NRAS=1.25 nM/40 nM.
(§6) The time-resolved fluorescence resonance energy transfer (TR-FRET) signal is measured on an Envision (PerkinElmer) plate reader: Excitation filter=340 nm; emission 1=495 nm; emission2=520 nm; dichroic mirror=D400/D505; delay time=[…]. The signal of each well is determined as the ratio of the emission at 520 nm to that at 495 nm. Percent effect of each well is determined after normalization to control wells containing DMSO (no effect) or a saturating concentration of inhibitor (max effect). The apparent effect as a function of compound concentration is fit to a four-parameter logistic equation.

[1] = molecular target: KRAS-G12C (C51S/C80L/C118S) (Homo sapiens, UniProt P01116, C118S/C51S/C80L/G12C); assay: SOS-catalyzed nucleotide exchange assay (Procedure A, TR-FRET), KRAS-G12C; assay type: biochemical; details: nucleotide exchange, Procedure A; read-out: KRAS G12C GNE IC50
KRAS-G12C (C51S/C80L/C118S), sequence (P01116 with tags, fused parts or gaps isoform P01116-2 G12C/C51S/C80L/C118S): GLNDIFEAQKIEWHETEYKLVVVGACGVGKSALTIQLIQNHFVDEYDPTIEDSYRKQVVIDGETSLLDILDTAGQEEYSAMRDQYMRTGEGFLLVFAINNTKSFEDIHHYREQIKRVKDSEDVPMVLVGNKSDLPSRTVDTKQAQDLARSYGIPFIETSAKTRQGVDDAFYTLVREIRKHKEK
Excerpt: as §2, §3, §4, §5, §6

AsPC-1 cells = assay: Cellular phospho-ERK assay, AsPC-1 cells (homozygous KRAS-G12D); assay type: cell-based; details: Homo sapiens, ASPC1, 2 h, read-out: AsPC1 pERK IC50
Method in brief: (§7)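 Inhibition of ERK phosphorylation was determined after treating attached cells with compound for 2 h; top concentration 30 μM, serial 1:3 dilution. Each well's p-ERK:total ERK ratio, read by SureFire Ultra, was fitted with a four-parameter model for IC50.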

SW620 cells = assay: Cellular phospho-ERK assay, SW620 cells (homozygous KRAS-G12V); assay type: cell-based; details: Homo sapiens, SW-620, 2 hours compound incubation, read-out: SW620 pERK IC50
Method in brief: as §7

MKN-1 cells = assay: Cellular phospho-ERK assay, MKN-1 cells (amplified wild-type KRAS); assay type: cell-based; details: Homo sapiens, 2 hours compound incubation, read-out: MKN1 pERK IC50
Method in brief: as §7

KRAS-G12D, sequence (P01116 with tags, fused parts or gaps isoform P01116-2 G12D): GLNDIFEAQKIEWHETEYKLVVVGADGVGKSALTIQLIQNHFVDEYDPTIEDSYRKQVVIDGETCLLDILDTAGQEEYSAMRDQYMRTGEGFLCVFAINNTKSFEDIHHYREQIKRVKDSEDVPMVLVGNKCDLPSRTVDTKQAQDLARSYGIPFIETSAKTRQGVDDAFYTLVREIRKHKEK

IC50 (KRAS-G12D) [nM] | IC50 (KRAS-WT) [nM] | IC50 (KRAS-G12V) [nM] | IC50 (KRAS-G13D) [nM] | IC50 [1] [nM] | IC50 (AsPC-1 cells; KRAS-G12D, 2 hours) [nM] | IC50 (AsPC-1 cells; 2 hours compound incubation) [nM] | IC50 (SW620 cells) [nM] | IC50 (MKN-1 cells) [nM] | Structure (SMILES)
9040 | 8020 | 4930 | 5380 | 1970 |  |  |  |  | Cc1nc2[nH]nc(C)c2c(-c2nccc3c4c(N5CCOC[C@@](C)(O)C5)nc(OC[C@@]56CCCN5C[C@H](F)C6)nc4n(C)c23)c1C(F)(F)F [Ex-15, (6S)-4-(8-(3,6-dimethyl-5-(trifluoromethyl)-1H-pyrazolo[3,4-b]pyridin-4-yl)-2-(((2R,7aS)-2-fluorotetrahydro-1H-pyrrolizin-7a(5H)-yl)methoxy)-9-methyl-9H-pyrido[4′,3′:4,5]pyrrolo[2,3-d]pyrimidin-4-yl)-6-methyl-1,4-oxazepan-6-ol]
32 | 101 | 55 | 32.6 | 17.9 | 385 |  |  |  | CC1(O)COCCN(c2nc(OCC34CCCN3CC(F)C4)nc3sc4c(-c5c(C6CC6)c(F)cc6[nH]ncc56)nccc4c23)C1 [Ex-47, (6S)-4-(8-(5-cyclopropyl-6-fluoro-1H-indazol-4-yl)-2-(((2R,7aS)-2-fluorotetrahydro-1H-pyrrolizin-7a(5H)-yl)methoxy)pyrido[4′,3′:4,5]thi-eno[2,3-d]pyrimidin-4-yl)-6-methyl-1,4-oxazepan-6-ol]
69.3 | 184 | 65.3 | 172 | 362 | 560 |  |  |  | C/C=C(\C)c1c(C)cc2[nH]ncc2c1-c1nccc2c1sc1nc(OC[C@@]34CCCN3C[C@H](F)C4)nc(N3CCOC[C@@](C)(O)C3)c12 [Ex-65, (6S)-4-(8-(5-((E)-but-2-en-2-yl)-6-methyl-1H-indazol-4-yl)-2-(((2R,7aS)-2-fluorotetrahydro-1H-pyrrolizin-7a(5H)-yl)methoxy)pyrido[4′,3′:4,5]thi-eno[2,3-d]pyrimidin-4-yl)-6-methyl-1,4-oxazepan-6-ol]
150 | 398 | 245 | 337 | 120 |  | 703 |  |  | Cc1cc2[nH]ncc2c(-c2nccc3c2sc2nc(OC[C@@]45CCCN4C[C@H](F)C5)nc(N4CCOC[C@@](C)(O)C4)c23)c1-c1cccs1 [Ex-138, (6S)-4-(2-(((2R, 7aS)-2-fluorotetra-hydro-1H-pyrrolizin-7a(5H)-yl)methoxy)-8-(6-methyl-5-(thio-phen-2-yl)-1H-ind-azol-4-yl)pyrido [4′,3′:4,5]thieno[2,3-d]pyrimidin-4-yl)-6-methyl-1,4-oxaze-pan-6-ol]
129 | 319 | 128 | 377 | 159 |  | 663 |  |  | Cc1cc2[nH]ncc2c(-c2nccc3c2sc2nc(OC[C@@]45CCCN4C[C@H](F)C5)nc(N4CCOC[C@@](C)(O)C4)c23)c1-c1ccsc1 [Ex-139, (6S)-4-(2-(((2R, 7aS)-2-fluorotetra-hydro-1H-pyrrol-izin-7a(5H)-yl)meth-oxy)-8-(6-methyl-5-(thiophen-3-yl)-1H-indazol-4-yl)pyrido [4′,3′:4,5]thieno[2,3-d]pyrimidin-4-yl)-6-methyl-1,4-oxaze-pan-6-ol]
69.3 | 184 | 65.3 | 172 | 362 |  | 560 |  |  | Cc1cc2[nH]ncc2c(-c2nccc3c2sc2nc(OC[C@@]45CCCN4C[C@H](F)C5)nc(N4CCOC[C@@](C)(O)C4)c23)c1C1=CCCC1 [Ex-140, (6S)-4-(8-(5-(cyclo-pent-1-en-1-yl)-6-methyl-1H-indazol-4-yl)-2-(((2R,7aS)-2-fluorotetrahydro-1H-pyrrolizin-7a(5H)-yl)methoxy)pyrido [4′,3′:4,5]thieno[2,3-d]pyrimidin-4-yl)-6-methyl-1,4-oxaze-pan-6-ol]
108 | 197 | 109 | 124 | 52.9 |  | 330 |  |  | C[C@@]1(O)COCCN(c2nc(OC[C@@]34CCCN3C[C@H](F)C4)nc3sc4c(-c5c(-c6cccs6)c(Cl)cc6[nH]ncc56)nccc4c23)C1 [Ex-143, (6S)-4-(8-(6-chloro-5-(thiophen-2-yl)-1H-indazol-4-yl)-2-(((2R,7aS)-2-fluoro-tetrahydro-1H-pyr-rolizin-7a(5H)-yl)-methoxy)pyrido [4′,3′:4,5]thieno[2,3-d]pyrimidin-4-yl)-6-methyl-1,4-oxaze-pan-6-ol]
7.07 | 23.5 | 22.2 |  | 3.57 |  | 24 | 15.4 | 22.9 | CN(C)C[C@@]1(COc2nc(N3CCOC[C@@](C)(O)C3)c3c(n2)sc2c(-c4c(C5CC5)c(C(F)(F)F)cc5[nH]ncc45)nccc23)CC1(F)F [Ex-206, (6S)-4-(8-(5-cyclo-propyl-6-(trifluoro-methyl)-1H-inda-zol-4-yl)-2-(((R)-1-((dimethylamino)-methyl)-2,2-difluorocycloprop-yl)methoxy)pyrido [4′,3′:4,5]thieno [2,3-d]pyrimidin-4-yl)-6-methyl-1,4-oxazepan-6-ol]
1310 | 1520 | 2950 | 1200 | 2220 |  |  |  |  | C[C@@]1(O)COCCN(c2nc(OC[C@@]34CCCN3C[C@H](F)C4)nc3sc4c(-c5ccc(F)c6sc(N)c(C#N)c56)nccc4c23)C1 [Ex-275, 2-amino-7-fluoro-4-(2-(((2R,7aS)-2-fluoro-tetrahydro-1H-pyrrolizin-7a(5H)-yl)methoxy)-4-((S)-6-hydroxy-6-methyl-1,4-oxazepan-4-yl)pyrido[4′,3′:4,5]thi-eno[2,3-d]pyrimidin-8-yl)benzo[b]thiophene-3-carbonitrile]
